Assay: Thermal stability with absorbents, GC-FID purity after stirring at 60° C. for 24 h
Assay type: physicochemical
Description: The thermal stability was measured by charging a weighed amount of (E)-1,4-bis(perfluoromorpholino)but-2-ene (having a purity of 98.8%) into glass vials and then adding a weighed amount of absorbent. (The purity of the composition was measured by analyzing the sample using GC-FID and comparing the area of the peak of interest to the total peak areas in the chromatogram.) The mixture was stirred at 60° C. for 24 h and then analyzed by GC-FID. The percent purity of the treated sample was determined by the peak area of the (E)-1,4-bis(perfluoromorpholino)but-2-ene peak versus the total peak areas in the GC-FID chromatogram.

Q: For `FC1(F)OC(F)(F)C(F)(F)N(C/C=C/CN2C(F)(F)C(F)(F)OC(F)(F)C2(F)F)C1(F)F` [(E)-1,4-bis(perfluoromorpholino)but-2-ene], which “GC Purity” value (4 Angstrom Molecular Sieves, starting purity 98.8%) is on record?
A: 98.8%

Q: What about the “GC Purity” value (Activated Carbon, starting purity 98.8%) of the same compound?
A: 98.8%

Q: And the “GC Purity” value (Basic Alumina, starting purity 98.8%)?
A: 99.5%

Q: And the “GC Purity” value (K2CO3, starting purity 98.8%)?
A: 98.9%

Q: And the “GC Purity” value (No Adsorbent, starting purity 98.8%)?
A: 98.8%

Q: And the “GC Purity” value (Silica Gel, starting purity 98.8%)?
A: 98.8%
